Data published in US6313127A, “Heterocyclic compounds useful as pharmaceutical agents” (Zeneca Limited, priority 1996, dated 2001).

Legend:
oxido-squalene cyclase [1] = assay: In vivo test to measure inhibition of oxido-squalene cyclase / cholesterol biosynthesis in the rat; conditions: 2 mg/kg, oral, female rats
Experimental: (b) In vivo Test to Measure Inhibition of Oxido-Squalene Cyclase
The ability of a compound to inhibit oxido-squalene cyclase and/or inhibit cholesterol biosynthesis may be assessed by a routine laboratory procedure carried out in the rat. The test involves administration of the compound to rats on a reversed lighting regimen. Female rats (35-55 g) are housed in reverse lighting conditions (red light from 0200 h-1400 h) for a period of about 2 weeks prior to test. Animals are allowed free access to chow and drinking water throughout this period. At test, animals should weigh 100-140 g. The rats are dosed orally, with the compound (typically 10-50 mg/kg) formulated in a polyethylene glycol/hydroxypropylmethyl cellulose mix. After 1 hour the rats are given […] sodium mevalonate (15 μCi/kg) intraperitoneally. Two hours after administration of the compound the rats are terminated and a piece of liver removed and weighed. The tissue is saponified at 80° C. for 2 hours in an ethaniolic/potassium hydroxide solution (80% w/v aqueous KOH diluted 1:10 with ethanol). Water (2 ml) is added and the mixture extracted with iso-hexane (2×5 ml). The organic extracts are combined, evaporated to dryness under a stream of nitrogen and the residue is dissolved in a mixture of acetonitrile/iso-propanol (300 μl). […] The radio-label content of each fraction is assessed using a radio chemical flow detector. […]

oxido-squalene cyclase [2] = assay: In vitro test to measure inhibition of microsomal oxido-squalene cyclase; format: biochemical; conditions: 1 μM; rat liver microsomes
Experimental: (a) In vitro Test to Measure Inhibition of Oxido-squalene Cyclase
This test measures the inhibition of microsomal oxido-squalene cyclase in vitro by compounds at set concentrations in the incubation medium.
Microsomes are prepared from rat liver according to methods known in the art, for example, the method described in published European Patent Application No 324,421 and stored in liquid nitrogen prior to assay. Assay vials are kept at 37° C. throughout the incubation. The microsomes typically contain 15-20 mg of protein per ml of microsomes. For assay, 1 ml of microsomes are diluted by the addition of 722 μl of 50 mM phosphate buffer pH 7.4.
Phosphate buffered Tween 80 (polyoxyethylene sorbitan […]) is prepared by adding 0.1 g Tween 80 to 100 ml of 50 mM phosphate buffer.
A stock solution of oxido-squalene is made up as a solution in ethanol (0.65 mg.ml^-1). 18 μl of radio-labelled oxido-squalene (1 μCi.ml^-1) is evaporated to dryness under a stream of nitrogen and redissolved in 1 ml of ethanol and 1 ml of the stock solution of oxido-squalene is added.
The test compound is dissolved in dimethyl sulphoxide to give a 10^-4 M stock solution. […]
The samples are then placed in a water bath at 80° C. for 2 hours to saponify. […] Reaction rate is measured as the conversion of oxido-squalene to lanosterol, and the effects of test compounds are expressed as an inhibition of this process.

| SMILES | inhibition of cholesterol biosynthesis (oxido-squalene cyclase [1]) | inhibition of oxido-squalene cyclase (conversion of oxido-squalene to lanosterol) (oxido-squalene cyclase [2]) |
| --- | --- | --- |
| N#Cc1ccc(S(=O)(=O)Nc2ccc(N3CCN(c4ccncc4)CC3)cc2)cc1 [Example 27, 1-(4-pyridyl)-4-(4-cyanophenylsulphonamidophenyl)piperazine] | 70% |  |
| O=S(=O)(c1ccc(Br)cc1)N1CCN(c2ccncc2)CC1 [Example 25, 1-(4-pyridyl)-4-(4-bromophenylsulphonyl)piperazine] |  | 100% |
| Fc1cc(Br)ccc1CN1CCN(c2ccncc2)CC1 [Example 18, 1-(4-pyridyl)-4-(2-fluoro-4-bromobenzyl)piperazine] | 59% |  |
